According to article PMC4475797, “New Activity of a Protein from Canavalia ensiformis” (Scientia Pharmaceutica, 2014):
Read-outs that look alike come from different tables or passages of the source.

Assays:
Concanavalin A (Con A) = target: T1, Concanavalin A (Con A) (Canavalia ensiformis, UniProt P02866); assay: biochemical; assay type: binding
T1 construct: purchased Sigma
Protocol: Fluorescence spectra were recorded with a Shimadzu spectrofluorometer (Japan). The emission spectra of the tryptophan residues were recorded in a 1-cm quartz cell (Hellma Analytics, Germany). To avoid the measurement of the Tyr emission, the protein sample was excited at λ=295 nm with a slit width of 1.0 nm. Total fluorescence was calculated after the normalization of the fluorescence spectra and correction for dilution. In order to normalize the inner filter and self-absorption effects, the excitation was always carried out less than 0.05 OD. The spectra were recorded in a wavelength range of 300–500 nm. All studies were done at 25°C with the temperature of the samples measured in the cuvette with an accuracy of ± 0.2°C.
The protein-ligand interactions were investigated by monitoring changes in the intrinsic protein fluorescence emission (θexc=295 nm). We applied ideal fluorescence titration and incubation methods for their intrinsic sensitivity and simplicity. For this purpose, Con A (1.8 µM) was incubated at 4°C overnight with increasing concentrations of MnTMPyP, ZnTPPS, and FeTMPyP. […] Applied porphyrin concentrations were consistent with minimizing artifacts due to aggregation phenomena. Con A-adenine interactions were studied by overnight incubation (at 4°C). The obtained experimental data were processed by non-linear and linear regression analysis, computed by a GraphPad Prism program and presented in figures comprising three independent sets of experiments.

[1] = test system: G361 (a human melanoma cell line); parameters: method as in PMID 18645224; details: G361 cells; cited from earlier work
[2] = test system: cancer cell lines (Du-145, HD-LAPC-4, Hep-G2, HI-LAPC-4, LnCAP, PANC-1, and PC-3); parameters: method as in PMID 20735206; details: combined with an ascorbic acid; cited from earlier work
[3] = pH 6.8, read-out: Dissociation constants (KD) for the interaction

Row | Compound | Kd (Concanavalin A (Con A); [3]) | effect on Trp fluorescence emission of Con A (Concanavalin A (Con A)) | further results
1 | C[n+]1ccc(-c2c3nc(c(-c4cc[n+](C)cc4)c4ccc([n-]4)c(-c4cc[n+](C)cc4)c4nc(c(-c5cc[n+](C)cc5)c5ccc2[n-]5)C=C4)C=C3)cc1.[Fe+3] [FeTMPyP, 5,10,15,20-Tetrakis (N-methyl 4-pyridyl)-porphyrin Fe(III)] | 0.95 ± 0.13 µM | – | Hill slope (h) (Concanavalin A (Con A)): 1.89±0.46; blue shift of the emission maximum (Concanavalin A (Con A)): 5 nm
2 | Nc1ncnc2[nH]cnc12 [adenine] | – | fluorescence quenching | Kd (Concanavalin A (Con A)): 0.38 ± 0.08 µM
3 | 5,10,15,20-Tetrakis(4-sulfonatophenyl)-porphyrin-Au(III)chloride [AuTPPS] | – | fluorescence quenching | –
4 | O=S(=O)([O-])c1ccc(-c2c3nc(c(-c4ccc(S(=O)(=O)[O-])cc4)c4ccc([nH]4)c(-c4ccc(S(=O)(=O)[O-])cc4)c4nc(c(-c5ccc(S(=O)(=O)[O-])cc5)c5ccc2[nH]5)C=C4)C=C3)cc1.[Zn+2].[Zn+2] [ZnTPPS, 5,10,15,20-Tetrakis (4-sulfonatophenyl)-porphyrin-zinc(II)] | – | increase in the Trp fluorescence | cell death [1]: induces cell death; red shift of the emission maximum position (Concanavalin A (Con A)): 10 nm
5 | C[n+]1ccc(-c2c3nc(c(-c4cc[n+](C)cc4)c4ccc([n-]4)c(-c4cc[n+](C)cc4)c4nc(c(-c5cc[n+](C)cc5)c5ccc2[n-]5)C=C4)C=C3)cc1.[Cl-].[Cl-].[Cl-].[Cl-].[Cl-].[Mn+3] [MnTMPyP, 5,10,15,20-Tetrakis (N-methyl-4-pyridyl)-porphyrin-Mn(III)pentachloride] | 1.89 ± 0.54 µM | fluorescence quenching | cytotoxic effect [2]: potent synergistic cytotoxic effect
